How the values were obtained:
Test in all cases: Growth on urinary catheter segments coated with TDMAC plus composition (roll plate)
[1] = tested on: Pseudomonas aeruginosa; format: cell-based
Procedure: (§1) Clear vinyl catheter segments (3 cm sections of tubing) that had been preheated (incubated in sterile water at 65° C. overnight) were coated in 5% TDMAC in ethanol for an hour at room temperature. The catheter segments were vigorously washed with sterile water and air-dried. The segments were then immersed in ethanol and coating solution (1000 μg OT+100 μg PS+100 μg EDTA/ml of water) for 2 hours at −20° C. In addition, a few catheter segments were immersed in coating solution alone for 2 hours at −20° C. All the segments were air dried and immersed in a tryptic soy broth culture of Pseudomonas aeruginosa, Klebsiella pneumoniae and Staphylococcus epidermidis for 3 hours at 37° C. The catheter segments were washed 3 times in 3 changes of sterile saline and rolled on tryptic soy agar plates. The plates were incubated overnight at 37° C. and the colonies were counted.

[2] = tested on: Klebsiella pneumoniae; format: cell-based
Procedure: as §1

[3] = tested on: Staph. epidermidis; format: cell-based, Staphylococcus epidermidis
Procedure: as §1

[4] = coated vinyl catheter segments vs uncoated control, coating at −20° C.
[5] = coated vinyl catheter segments, coating 2 hours at −20° C., 3 hours in culture at 37° C., CFU per millimeter of catheter tubing

In the case of `CCCCCCCCCCCC[N+](C)(CCCCCCCCCCCC)CCCCCCCCCCCC.[Cl-]` [TDMAC, Tridodecyl Methyl Ammonium Chloride], the “% Inhibition” value [1, 4] is reported as 12%, the “Viable Counts (CFU/mM)” value [1, 5] is reported as 18.8 ± 4.6 CFU/mM and the “% Inhibition” value [2, 4] is reported as 0%. The “Viable Counts (CFU/mM)” value [2, 5] was 4.3 ± 1.3 CFU/mM, the “% Inhibition” value [3, 4] was 0% and the “Viable Counts (CFU/mM)” value [3, 5] was 20.4 ± 7.7 CFU/mM.
